Laboratory results as given in patent US20240294498A1, “FACTOR XIIA INHIBITORS” (Lunac Therapeutics Ltd, priority 2021, published 2024).

Experiments:
Type in all cases: biochemical
FXIIa = molecular target: T1, FXIIa (Homo sapiens, UniProt P00748); assay: Determination of Factor XIIa inhibition (chromogenic substrate S-2302); details: human FXIIa alpha, Ki category
T1 construct: FXIIa alpha
T1 sequence (P00748 373-615 limits assumed): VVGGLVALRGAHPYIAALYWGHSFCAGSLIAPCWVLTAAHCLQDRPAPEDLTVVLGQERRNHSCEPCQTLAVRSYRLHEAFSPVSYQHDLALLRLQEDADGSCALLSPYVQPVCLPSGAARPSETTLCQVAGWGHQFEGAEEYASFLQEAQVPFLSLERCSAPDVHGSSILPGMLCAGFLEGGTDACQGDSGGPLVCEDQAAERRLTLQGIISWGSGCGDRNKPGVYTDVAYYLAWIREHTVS
T1 sequence (P00748 20-372 partner limits assumed): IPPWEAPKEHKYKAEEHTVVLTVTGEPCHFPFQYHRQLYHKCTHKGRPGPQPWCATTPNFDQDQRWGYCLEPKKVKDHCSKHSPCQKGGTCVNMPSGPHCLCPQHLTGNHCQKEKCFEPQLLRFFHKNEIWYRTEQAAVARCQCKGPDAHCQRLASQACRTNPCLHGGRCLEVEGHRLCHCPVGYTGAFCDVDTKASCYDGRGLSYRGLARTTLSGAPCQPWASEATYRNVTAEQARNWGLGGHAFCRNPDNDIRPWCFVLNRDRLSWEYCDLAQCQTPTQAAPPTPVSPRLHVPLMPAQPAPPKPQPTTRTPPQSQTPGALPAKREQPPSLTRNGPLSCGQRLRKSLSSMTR
Procedure: (§1) The activities of the compounds of the invention have been determined in vitro using the following assays protocols for the screening of activity of FXIIa and other proteases. Each of these assays were performed in a purified system employing the use of chromogenic assays in microplate plate wells. Chromogenic peptide substrates mimicking natural protein substrates are attached via an amide bond to a chromogenic group. Paranitroaniline (pNA) is released from the peptide following catalyses by the proteolytic enzyme; the absorbance increases and can be monitored at 405 nm.
(§2) All compounds were dissolved in 100% (v/v) DMSO to a stock concentration of 10 mM, the highest concentration of compound used in each assay is 500 μM. The final concentrations of DMSO were 5% (v/v) in 50 mM Tris 137 mM NaCl pH 7.4. Where no test compound was added a final concentration of 5% DMSO was employed.
Factor XIIa activity was measured using a chromogenic substrate S-2302 (Chromogenix). Various concentrations of compound were incubated with 10 nM of FXIIa and incubated at 37° C. for 10 minutes in 50 mM Tris, 137 mM NaCl, pH 7.4, prior to the addition of the chromogenic substrate S-2302 at a concentration equal the to the experimentally derived KM. Kinetic readings at 405 nm were monitored every 12 secs for a total duration of 3 hours at 37° C. Gradients of initial rates were determined and employed to calculate IC50 values.
The activity of the compounds of the invention has been categorised based on the Ki values, the categories being “†”, “*”, “**” and “***”. […] The category “**” refers to compounds with a Ki value of 0.2 μM to 0.8 μM.
(§3) Ki═IC50/(1+[Substrate]/Km)
(§4) Where [Substrate] denotes the concentration of substrate used in the assay and Km is the determined value of each enzyme with its own substrate.

FXa = FXa (Homo sapiens, UniProt P00742); assay: Determination of selectivity: FXa inhibition (chromogenic substrate S2765); details: fold selectivity for FXIIa over FXa (human); category
Procedure: as §1, §2
(§5) To determine selectivity of test compounds, these test compounds were assayed for inhibitory activity against other serine proteases including FXa and thrombin. Essentially compounds at increasing concentrations were incubated with each enzyme: FXa (5 nM) and thrombin (5 nM), for 10 mins at 37° C. followed by the appropriate chromogenic substrate, S2765 (Chromogenix) and GPR (Bachem) respectively in 50 mM Tris, 137 mM NaCl, pH 7.4. Substrates were used at a concentration equal to the appropriate experimentally derived KM. Kinetic readings at 405 nm were monitored every 12 secs for a total duration of 3 hours at 37° C. Gradients of initial rates were determined and employed to calculate IC50 values. Values of IC50 were converted to Ki values based on the formula:
as §3, §4
The fold selectivity for FXIIa over FXa for the compounds of the invention has been categorised based on the fold selectivity values, the categories being “o”, “oo” and “ooo”. The category “o” refers to fold selectivity values less than 10 (e.g. a fold selectivity value of less than 10 and greater than 1). The category “oo” refers to a fold selectivity value of 10 to 100. The category “ooo” refers to fold selectivity values greater than 100.

thrombin = molecular target: T2, thrombin (Homo sapiens, UniProt P00734); assay: Determination of selectivity: thrombin inhibition (chromogenic substrate GPR); details: fold selectivity for FXIIa over thrombin (human); category
T2 construct: FXa (5 nM) and thrombin (5 nM)
Procedure: as §1, §2, §5, §3, §4
The fold selectivity for FXIIa over thrombin for the compounds of the invention has been categorised based on the fold selectivity values, the categories being “+”, “++” and “+++”. The category “+” refers to fold selectivity values less than 10 (e.g. a fold selectivity value of less than 10 and greater than 1). The category “++” refers to a fold selectivity value of 10 to 100. The category “+++” refers to fold selectivity values greater than 100.

Sequence of FXa (P00742 235-488 limits assumed): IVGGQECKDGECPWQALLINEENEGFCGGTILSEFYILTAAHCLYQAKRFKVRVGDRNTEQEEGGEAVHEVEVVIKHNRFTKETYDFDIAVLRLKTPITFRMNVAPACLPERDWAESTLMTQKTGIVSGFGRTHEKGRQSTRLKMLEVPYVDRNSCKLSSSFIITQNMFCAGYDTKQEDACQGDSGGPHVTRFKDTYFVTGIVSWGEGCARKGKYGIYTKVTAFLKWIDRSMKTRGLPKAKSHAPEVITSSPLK
Sequence of FXa (P00742 41-179 partner limits assumed): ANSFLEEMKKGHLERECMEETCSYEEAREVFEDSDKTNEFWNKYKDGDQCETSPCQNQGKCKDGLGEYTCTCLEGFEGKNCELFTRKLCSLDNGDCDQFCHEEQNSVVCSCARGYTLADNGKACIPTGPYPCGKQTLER

SMILES | Ki (FXIIa) [nM] | FXa (human)/FXIIa alpha (human) (FXa) | Thrombin (human)/FXIIa alpha (human) (thrombin)
O=C(NCc1cc2cnccc2[nH]1)[C@@H]1C[C@H](C(F)(F)F)CN1C(=O)[C@@H]1NCCC[C@@H]1C(=O)N1CCCC1 [Example M05720, (2S,4S)-N-((1H-pyrrolo[3,2-c]pyridin-2-yl)methyl)-1-((2R,3S)-3-(pyrrolidine-1-carbonyl)piperidine-2-carbonyl)-4-(trifluoromethyl)pyrrolidine-2-carboxamide] | < 200 | ∘∘∘ | +++ (fold selectivity values greater than 100)
Cc1ccc(C[C@@H]2C[C@@H](C(=O)NCc3ccc4c(cnn4C)c3)N(C(=O)[C@@H]3NCCC[C@@H]3C(=O)N3CCCCC3)C2)cc1 [Example M05733, (2S,4R)-N-((1-methyl-1H-indazol-5-yl)methyl)-4-(4-methylbenzyl)-1-((2R,3S)-3-(piperidine-1-carbonyl)piperidine-2-carbonyl)pyrrolidine-2-carboxamide] | < 200 | ∘∘∘ | ++ (a fold selectivity value of 10 to 100)
Cc1ccc(C[C@@H]2C[C@@H](C(=O)NCc3ccc4c(cnn4C)c3)N(C(=O)[C@@H]3NCCC[C@@H]3C(=O)N3CCC[C@@H]3C(F)(F)F)C2)cc1 [Example M05747, (2S,4R)-N-((1-methyl-1H-indazol-5-yl)methyl)-4-(4-methylbenzyl)-1-((2R,3S)-3-((R)-2-(trifluoromethyl)pyrrolidine-1-carbonyl)piperidine-2-carbonyl)pyrrolidine-2-carboxamide] | < 200 | ∘∘∘ | +++ (fold selectivity values greater than 100)
Cc1ccc(C[C@@H]2C[C@@H](C(=O)NCc3ccc4[nH]ncc4c3)N(C(=O)[C@@H]3NCCC[C@@H]3C(=O)N3CCCC3)C2)cc1 [Example M05748, (2S,4R)-N-((1H-indazol-5-yl)methyl)-4-(4-methylbenzyl)-1-((2R,3S)-3-(pyrrolidine-1-carbonyl)piperidine-2-carbonyl)pyrrolidine-2-carboxamide] | 800 to 5000 | ∘∘∘ | ++ (a fold selectivity value of 10 to 100)
Cc1ccc(C[C@@H]2C[C@@H](C(=O)NCc3ccc4c(cnn4C)c3)N(C(=O)[C@@H]3NCCC[C@@H]3C(=O)N(C)C)C2)cc1 [Example M05751, (2R,3S)-N,N-dimethyl-2-((2S,4R)-2-(((1-methyl-1H-indazol-5-yl)methyl)carbamoyl)-4-(4-methylbenzyl)pyrrlidine-1-carbonyl)piperidine-3-carboxamide] | 200 to 800 | ∘∘∘ | +++ (fold selectivity values greater than 100)
Cc1ccc(C[C@@H]2C[C@@H](C(=O)NCc3ccc4c(cnn4C)c3)N(C(=O)[C@@H]3NCCC[C@@H]3C(=O)N(C)C3CC3)C2)cc1 [Example M05752, (2R,3S)-N-cyclopropyl-N-methyl-2-((2S,4R)-2-(((1-methyl-1H-indazol-5-yl)methyl)carbamoyl)-4-(4-methylbenyl)pyrrolidine-1-carbonyl)piperidine-3-carboxamide] | < 200 | ∘∘∘ | ++ (a fold selectivity value of 10 to 100)
Cc1ccc(C[C@@H]2C[C@@H](C(=O)NCc3ccc4c(cnn4C)c3)N(C(=O)[C@@H]3NCCC[C@@H]3C(=O)N3CCOCC3)C2)cc1 [Example M05753, (2S,4R)—N-((1-methyl-1H-indazol-5-yl)methyl)-4-(4-methylbenzyl)-1-((2R,3S)-3-(morpholine-4-carbonyl)piperidine-2-carbonyl)pyrrolidine-2-carboxamide] | 200 to 800 | ∘∘∘ | ++ (a fold selectivity value of 10 to 100)
Cc1ccc(C[C@@H]2C[C@@H](C(=O)NCc3ccc4c(cnn4C)c3)N(C(=O)[C@@H]3NCCC[C@@H]3C(=O)N3CCNCC3)C2)cc1 [Example M05754, (2S,4R)-N-((1-methyl-1H-indazol-5-yl)methyl)-4-(4-methylbenzyl)-1-((2R,3S)-3-(piperazine-1-carbonyl)piperidine-2-carbonyl)pyrrolidine-2-carboxamide] | 200 to 800 | ∘∘∘ | +++ (fold selectivity values greater than 100)
Cc1ccc(C[C@@H]2C[C@@H](C(=O)NCc3ccc4c(cnn4C)c3)N(C(=O)[C@H]3[C@@H](C(=O)N4CCCC4)CCCN3C)C2)cc1 [Example M05757, (2S,4R)—N-[(1-methylindazol-5-yl)methyl]-1-[(2R,3S)-1-methyl-3-(pyrrolidine-1-carbonyl)piperidine-2-carbonyl]-4-(p-tolylmethyl)pyrrolidine-2-carboxamide] | < 200 | ∘∘∘ | +++ (fold selectivity values greater than 100)
Cc1ccc(C[C@@H]2C[C@@H](C(=O)NCC3Cc4ccncc4C3)N(C(=O)[C@@H]3NCCC[C@@H]3C(=O)N3CCCC3)C2)cc1 (stereo partly drawn) [Example M05764, (2S,4R)-N-((6,7-dihydro-5H-cyclopenta[c]pyridin-6-yl)methyl)-4-(4-methylbenzyl)-1-((2R,3S)-3-(pyrrolidine-1-carbonyl)piperidine-2-carbonyl)pyrrolidine-2-carboxamide] | < 200 | ∘∘∘ | +++ (fold selectivity values greater than 100)
Cc1ccc(C[C@@H]2C[C@@H](C(=O)NCc3ccc4c(cnn4C)c3)N(C(=O)[C@@H]3NCCC[C@@H]3C(=O)N3CCC4(CC4)C3)C2)cc1 [Example M05766, (2S,4R)-1-[(2R,3S)-3-(5-azaspiro[2.4]heptane-5-carbonyl)piperidine-2-carbonyl]-N-[(1-methylindazol-5-yl)methyl]-4-(p-tolylmethyl)pyrrolidine-2-carboxamide] | < 200 | ∘∘∘ | +++ (fold selectivity values greater than 100)
Cc1ccc(C[C@@H]2C[C@@H](C(=O)NCc3ccc4c(cnn4C)c3)N(C(=O)[C@@H]3NCCC[C@@H]3C(=O)N3C4CCC3COC4)C2)cc1 [Example M05770, (2S,4R)-1-((2R,3S)-3-(3-oxa-8-azabicyclo[3.2.1]octane-8-carbonyl)piperidine-2-carbonyl)-N-((1-methyl-1H-indazol-5-yl)methyl)-4-(4-methylbenzyl)pyrrolidine-2-carboxamide] | 200 to 800 | ∘∘∘ | +++ (fold selectivity values greater than 100)
